The series in a line: recombinant UMI read abundance after kanamycin selection (control-corrected) (log10(CPM+1)); higher = more efficient recombination; extreme values may be limits of the assay; sequences stand for … in AGTGCAGAGAAAATCGGCCAGTTTTCTCTGCCTGCAGTCCGCATGCCGTGGGACCCCTTGGGTTCTAACCTGTTGCCTAGATTTATGCAGCGGACTGCCTTTCTCCCAAAGTGATAAACCGG…AGGTTGGTTTCACT; site = the 11-nt donor. The method, boiled down: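 Values, expressed as log10(CPM+1), derive from recombinant UMI counts converted to CPM, averaged across replicates and scaled by control-derived factors. Plating was with IPTG (0.07 mM) plus kanamycin or unselected, two replicates each. The screen pooled donor and donor-binding-loop pairs for the IS621 bridge recombinase in Escherichia coli.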
With “CTTAATACATGGACCGGTTTTCCCGGTAATCCGTATTTGGC (site CCTAATACTGC)”, the “recombinant UMI read abundance (log10)” value is 0. In the case of “CTTAATACATGGACCGGTTTTCCCGGTAATCCGTATTTGGC (site CGTAATACTGC)” it was 0.0463; in that of “CTTAATACATGGACCGGTTTTCCCGGTAATCCGTATTTGGC (site CTTAATACTGC)”, 0.

As for “CTTACGGCATGGACCGGTTTTCCCGGTAATCCGTATTTGAT (site CTTACGGCTAT)”, the “recombinant UMI read abundance (log10)” value worked out at 1.44. Regarding “CTTACTACATGGACCGGTTTTCCCGGTAATCCGTATTTGGC (site CTTACTACTGC)”, the “recombinant UMI read abundance (log10)” value was 0.688. As for “CTTAGAACATGGACCGGTTTTCCCGGTAATCCGTATTTGGC (site ATTAGAACTGC)”, the figure is 0; as for “CTTAGAACATGGACCGGTTTTCCCGGTAATCCGTATTTGGC (site CTTAGAACTGC)”, 1.4.

For the sequence “CTTAGAACATGGACCGGTTTTCCCGGTAATCCGTATTTGGC (site GTTAGAACTGC)”, the “recombinant UMI read abundance (log10)” value turned out to be 0.016. Turning to “CTTAGAACATGGACCGGTTTTCCCGGTAATCCGTATTTGGC (site TTTAGAACTGC)”, the “recombinant UMI read abundance (log10)” value was 0. As for “CTTCAATCATGGACCGGTTTTCCCGGTAATCCGTATTTGGA (site CTTCAATCTTC)”, the “recombinant UMI read abundance (log10)” value was determined as 1.71. As for “CTTCACTCATGGACCGGTTTTCCCGGTAATCCGTATTTGTA (site CTTCACTCTTA)”, the figure is 1.73.

As for “CTTCACTCATGGACCGGTTTTCCCGGTAATCCGTATTTGTA (site CTTCCCTCTTA)”, the “recombinant UMI read abundance (log10)” value is 0.00659. In the case of “CTTCACTCATGGACCGGTTTTCCCGGTAATCCGTATTTGTA (site CTTCGCTCTTA)”, the “recombinant UMI read abundance (log10)” value turned out to be 0.00683.

On to “CTTCACTCATGGACCGGTTTTCCCGGTAATCCGTATTTGTA (site CTTCTCTCTTA)”, for which the “recombinant UMI read abundance (log10)” value stood at 0. As for “CTTCAGTCATGGACCGGTTTTCCCGGTAATCCGTATTTGGC (site CTTCAGTCTGC)”, the “recombinant UMI read abundance (log10)” value worked out at 0.339. As for “CTTCATACATGGACCGGTTTTCCCGGTAATCCGTATTTGTT (site CTTCATACTAA)”, the figure is 1.32; as for “CTTCCCTCATGGACCGGTTTTCCCGGTAATCCGTATTTGTG (site CTTCCCTCTCA)”, 0.257; as for “CTTCCTACATGGACCGGTTTTCCCGGTAATCCGTATTTGTA (site CTTCCTACTTA)”, 0.451. On to “CTTCGCACATGGACCGGTTTTCCCGGTAATCCGTATTTGAA (site CTTCGCACTTT)”, for which the “recombinant UMI read abundance (log10)” value worked out at 0.375. In the case of “CTTCTCTCATGGACCGGTTTTCCCGGTAATCCGTATTTGTA (site ATTCTCTCTTA)” it was 0.402. In the case of “CTTCTCTCATGGACCGGTTTTCCCGGTAATCCGTATTTGTA (site CATCTCTCTTA)”, the “recombinant UMI read abundance (log10)” value stood at 0.954. For “CTTCTCTCATGGACCGGTTTTCCCGGTAATCCGTATTTGTA (site CCTCTCTCTTA)”, the “recombinant UMI read abundance (log10)” value worked out at 0.823. As for “CTTCTCTCATGGACCGGTTTTCCCGGTAATCCGTATTTGTA (site CGTCTCTCTTA)”, the figure is 1.35. In the case of “CTTCTCTCATGGACCGGTTTTCCCGGTAATCCGTATTTGTA (site CTACTCTCTTA)” it was 0.967; in that of “CTTCTCTCATGGACCGGTTTTCCCGGTAATCCGTATTTGTA (site CTCCTCTCTTA)”, 1.89. In the case of “CTTCTCTCATGGACCGGTTTTCCCGGTAATCCGTATTTGTA (site CTGCTCTCTTA)” it was 0.693; in that of “CTTCTCTCATGGACCGGTTTTCCCGGTAATCCGTATTTGTA (site CTTATCTCTTA)”, 0.00276. Consider “CTTCTCTCATGGACCGGTTTTCCCGGTAATCCGTATTTGTA (site CTTCACTCTTA)”, for which the “recombinant UMI read abundance (log10)” value stood at 0. As to “CTTCTCTCATGGACCGGTTTTCCCGGTAATCCGTATTTGTA (site CTTCCCTCTTA)”, the “recombinant UMI read abundance (log10)” value was determined as 0.181. As for “CTTCTCTCATGGACCGGTTTTCCCGGTAATCCGTATTTGTA (site CTTCGCTCTTA)”, the figure is 0.00811; as for “CTTCTCTCATGGACCGGTTTTCCCGGTAATCCGTATTTGTA (site CTTCTATCTTA)”, 0.394; as for “CTTCTCTCATGGACCGGTTTTCCCGGTAATCCGTATTTGTA (site CTTCTCACTTA)”, 0.0108.

As for “CTTCTCTCATGGACCGGTTTTCCCGGTAATCCGTATTTGTA (site CTTCTCCCTTA)”, the “recombinant UMI read abundance (log10)” value amounted to 0.207.

On to “CTTCTCTCATGGACCGGTTTTCCCGGTAATCCGTATTTGTA (site CTTCTCGCTTA)”, for which the “recombinant UMI read abundance (log10)” value amounted to 0.0131. As for “CTTCTCTCATGGACCGGTTTTCCCGGTAATCCGTATTTGTA (site CTTCTCTCTAA)”, the figure is 0.394. In the case of “CTTCTCTCATGGACCGGTTTTCCCGGTAATCCGTATTTGTA (site CTTCTCTCTCA)” it was 0.552; in that of “CTTCTCTCATGGACCGGTTTTCCCGGTAATCCGTATTTGTA (site CTTCTCTCTGA)”, 0.448; in that of “CTTCTCTCATGGACCGGTTTTCCCGGTAATCCGTATTTGTA (site CTTCTCTCTTA)”, 2.28. In the case of “CTTCTCTCATGGACCGGTTTTCCCGGTAATCCGTATTTGTA (site CTTCTCTCTTC)” it was 0.278. As for “CTTCTCTCATGGACCGGTTTTCCCGGTAATCCGTATTTGTA (site CTTCTCTCTTG)”, the “recombinant UMI read abundance (log10)” value turned out to be 0.558. In the case of “CTTCTCTCATGGACCGGTTTTCCCGGTAATCCGTATTTGTA (site CTTCTCTCTTT)”, the “recombinant UMI read abundance (log10)” value turned out to be 0.676.

On to “CTTCTCTCATGGACCGGTTTTCCCGGTAATCCGTATTTGTA (site CTTCTGTCTTA)”, for which the “recombinant UMI read abundance (log10)” value was 0.00544. “CTTCTCTCATGGACCGGTTTTCCCGGTAATCCGTATTTGTA (site CTTCTTTCTTA)”: the “recombinant UMI read abundance (log10)” value amounted to 0. In the case of “CTTCTCTCATGGACCGGTTTTCCCGGTAATCCGTATTTGTA (site CTTGTCTCTTA)” it was 0.00827; in that of “CTTCTCTCATGGACCGGTTTTCCCGGTAATCCGTATTTGTA (site CTTTTCTCTTA)”, 0; in that of “CTTCTCTCATGGACCGGTTTTCCCGGTAATCCGTATTTGTA (site GTTCTCTCTTA)”, 0.0236. In the case of “CTTCTCTCATGGACCGGTTTTCCCGGTAATCCGTATTTGTA (site TTTCTCTCTTA)”, the “recombinant UMI read abundance (log10)” value is 0.396. As for “CTTCTCTCATGGACCGGTTTTCCCGGTAATCCGTATTTGTG (site CTTCTCTCTAA)”, the figure is 0.0117; as for “CTTCTCTCATGGACCGGTTTTCCCGGTAATCCGTATTTGTG (site CTTCTCTCTCA)”, 0.154; as for “CTTCTCTCATGGACCGGTTTTCCCGGTAATCCGTATTTGTG (site CTTCTCTCTGA)”, 0. In the case of “CTTCTCTCATGGACCGGTTTTCCCGGTAATCCGTATTTGTG (site CTTCTCTCTTA)” it was 0; in that of “CTTCTCTCATGGACCGGTTTTCCCGGTAATCCGTATTTGTT (site CTTCTCTCTAA)”, 2.22. As to “CTTCTCTCATGGACCGGTTTTCCCGGTAATCCGTATTTGTT (site CTTCTCTCTCA)”, the “recombinant UMI read abundance (log10)” value was found to be 0.0142. For the sequence “CTTCTCTCATGGACCGGTTTTCCCGGTAATCCGTATTTGTT (site CTTCTCTCTGA)”, the “recombinant UMI read abundance (log10)” value was 0. For the sequence “CTTCTCTCATGGACCGGTTTTCCCGGTAATCCGTATTTGTT (site CTTCTCTCTTA)”, the “recombinant UMI read abundance (log10)” value stood at 0.757. In the case of “CTTCTGTCATGGACCGGTTTTCCCGGTAATCCGTATTTGTA (site CTTCTATCTTA)” it was 2.41; in that of “CTTCTGTCATGGACCGGTTTTCCCGGTAATCCGTATTTGTA (site CTTCTCTCTTA)”, 0.00482. In the case of “CTTCTGTCATGGACCGGTTTTCCCGGTAATCCGTATTTGTA (site CTTCTGTCTTA)” it was 2.01; in that of “CTTCTGTCATGGACCGGTTTTCCCGGTAATCCGTATTTGTA (site CTTCTTTCTTA)”, 0. For the sequence “CTTCTTTCATGGACCGGTTTTCCCGGTAATCCGTATTTGAC (site CTTCTTTCTGT)”, the “recombinant UMI read abundance (log10)” value stood at 0. In the case of “CTTCTTTCATGGACCGGTTTTCCCGGTAATCCGTATTTGTA (site CTTCTATCTTA)”, the “recombinant UMI read abundance (log10)” value was 0.00989. As for “CTTCTTTCATGGACCGGTTTTCCCGGTAATCCGTATTTGTA (site CTTCTCTCTTA)”, the figure is 0; as for “CTTCTTTCATGGACCGGTTTTCCCGGTAATCCGTATTTGTA (site CTTCTGTCTTA)”, 0.00353; as for “CTTCTTTCATGGACCGGTTTTCCCGGTAATCCGTATTTGTA (site CTTCTTTCTTA)”, 0. Turning to “CTTGGACCATGGACCGGTTTTCCCGGTAATCCGTATTTGTT (site CTTGGACCTAA)”, the “recombinant UMI read abundance (log10)” value is 0.00553. With “CTTGGATCATGGACCGGTTTTCCCGGTAATCCGTATTTGAC (site CTAGTATCTGT)”, the “recombinant UMI read abundance (log10)” value worked out at 0. Consider “CTTGGATCATGGACCGGTTTTCCCGGTAATCCGTATTTGAC (site CTTGGATCTGT)”, for which the “recombinant UMI read abundance (log10)” value came to 0.

Turning to “CTTGGATCATGGACCGGTTTTCCCGGTAATCCGTATTTGCA (site CTTGGATCTTG)”, the “recombinant UMI read abundance (log10)” value worked out at 2.59.

These data come from the supplement of paper PMC11208160.
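Also: IS621 bridge recombinase in Escherichia coli cells against a fixed T5 target plasmid.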
